pIC50: −log10 of the molar value. In brackets after ≈: the same amount, converted by molar mass. Like-named read-outs stand apart in the source and are kept apart here.
Assays:
[1] = Approximate solubility at RT by stepwise solvent addition; type: physicochemical
Description: The approximate solubility of (S)-4-((2-methoxyethyl)(4-(5,6,7,8-tetrahydro-1,8-naphthyridin-2-yl)butyl)amino)-2-(quinazolin-4-ylamino)butanoic acid was determined at RT. Approximately 2 mg of solids were added into a 3-mL glass vial. Different solvents were then added stepwise (50-50-200-700 μL for each step) into the vials and stirred until the solids were dissolved or a total volume of 1 mL was reached.
The approximate solubility of Form I was determined at RT. Approximately 2 mg of solids were added into 3-mL glass vials. Different solvents were then added stepwise (50-50-200-700 μL for each step) into the vials until the solids were dissolved or a total volume of 1 mL was reached.

[2] = molecular target: recombinant human integrin αvβ6 (Homo sapiens, UniProt P06756+P18564); experiment: Solid phase integrin αvβ6 binding assay; details: TGFβ1 LAP binding to coated integrin, four-parameter logistic regression; read-out: IC50 for αvβ6 integrin inhibition
Description: Microplates were coated with recombinant human integrin αvβ6 (2 μg/mL) in PBS (100 μL/well 25° C., overnight). The coating solution was removed, washed with wash buffer (0.05% Tween 20; 0.5 mM MnCl2; in 1×TBS). The plate was blocked with 200 μL/well of Block Buffer (1% BSA; 5% sucrose; 0.5 mM MnCl2; in 1×TBS) at 37° C. for 2 h. Dilutions of testing compounds and recombinant TGFβ1 LAP (0.67 μg/mL) in binding buffer (0.05% BSA; 2.5% sucrose; 0.5 mM MnCl2; in 1×TBS) were added. The plate was incubated for 2 hours at 25° C., washed, and incubated for 1 hour with Biotin-Anti-hLAP. Bound antibody was detected by peroxidase-conjugated streptavidin. The IC50 values for testing compounds were calculated by a four-parameter logistic regression. The IC50 value obtained for αvβ6 integrin inhibition for (S)-4-((2-methoxyethyl)(4-(5,6,7,8-tetrahydro-1,8-naphthyridin-2-yl)butyl)amino)-2-(quinazolin-4-ylamino)butanoic acid was <50 nM.

[3] = Dynamic vapor sorption (DVS); type: physicochemical; details: 4.5 g scale batch
Description: DVS was measured via a SMS (Surface Measurement Systems) DVS Intrinsic. The relative humidity at 25° C. were calibrated against the deliquescence point of LiCl, Mg(NO3)2 and KCl.
Form I on 4.5 g scale was obtained via slurrying 4.5 g amorphous freeform of (S)-4-((2-methoxyethyl)(4-(5,6,7,8-tetrahydro-1,8-naphthyridin-2-yl)butyl)amino)-2-(quinazolin-4-ylamino)butanoic acid and an equimolar amount of 85% phosphoric acid (1.05 g) in anhydrous EtOH (≥99.7%) (112 mL) at RT and seeded with around 1 wt % Form I seed. The product was analyzed by XRPD, DSC, TGA, DVS, ^1H NMR, and HPLC. […] Based on HPLC/IC analysis, the molar ratio of API:phosphoric acid was 1:1.

[4] = Heating experiment, solid form checked by XRPD; type: physicochemical; details: for solid form after heating: after heating to 150° C.

Chain of recombinant human integrin αvβ6 (P06756 31-992 limits assumed): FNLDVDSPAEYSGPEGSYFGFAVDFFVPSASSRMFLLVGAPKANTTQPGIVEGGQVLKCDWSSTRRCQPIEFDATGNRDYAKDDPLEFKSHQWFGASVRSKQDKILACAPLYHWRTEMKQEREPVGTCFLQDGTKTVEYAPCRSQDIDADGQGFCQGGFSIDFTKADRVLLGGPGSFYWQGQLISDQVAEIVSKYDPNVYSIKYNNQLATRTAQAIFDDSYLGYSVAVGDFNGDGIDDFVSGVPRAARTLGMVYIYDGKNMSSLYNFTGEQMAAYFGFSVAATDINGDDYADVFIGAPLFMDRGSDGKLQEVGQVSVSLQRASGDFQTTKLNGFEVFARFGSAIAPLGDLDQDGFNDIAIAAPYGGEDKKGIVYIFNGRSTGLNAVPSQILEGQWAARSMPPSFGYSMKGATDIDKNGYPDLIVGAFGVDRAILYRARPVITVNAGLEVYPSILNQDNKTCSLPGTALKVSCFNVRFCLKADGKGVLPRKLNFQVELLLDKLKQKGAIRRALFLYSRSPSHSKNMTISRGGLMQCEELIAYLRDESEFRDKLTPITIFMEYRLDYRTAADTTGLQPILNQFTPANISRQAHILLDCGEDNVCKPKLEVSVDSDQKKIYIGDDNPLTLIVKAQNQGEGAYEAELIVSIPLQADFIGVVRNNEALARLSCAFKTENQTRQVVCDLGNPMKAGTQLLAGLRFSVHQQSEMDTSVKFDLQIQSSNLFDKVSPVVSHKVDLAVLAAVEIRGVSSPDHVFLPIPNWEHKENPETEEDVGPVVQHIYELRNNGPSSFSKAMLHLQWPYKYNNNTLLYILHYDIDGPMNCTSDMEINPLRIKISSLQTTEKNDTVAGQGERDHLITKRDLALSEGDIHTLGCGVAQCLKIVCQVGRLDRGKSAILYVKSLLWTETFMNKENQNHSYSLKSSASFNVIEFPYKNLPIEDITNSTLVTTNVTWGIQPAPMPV
Chain of recombinant human integrin αvβ6 (P18564 22-707 limits assumed): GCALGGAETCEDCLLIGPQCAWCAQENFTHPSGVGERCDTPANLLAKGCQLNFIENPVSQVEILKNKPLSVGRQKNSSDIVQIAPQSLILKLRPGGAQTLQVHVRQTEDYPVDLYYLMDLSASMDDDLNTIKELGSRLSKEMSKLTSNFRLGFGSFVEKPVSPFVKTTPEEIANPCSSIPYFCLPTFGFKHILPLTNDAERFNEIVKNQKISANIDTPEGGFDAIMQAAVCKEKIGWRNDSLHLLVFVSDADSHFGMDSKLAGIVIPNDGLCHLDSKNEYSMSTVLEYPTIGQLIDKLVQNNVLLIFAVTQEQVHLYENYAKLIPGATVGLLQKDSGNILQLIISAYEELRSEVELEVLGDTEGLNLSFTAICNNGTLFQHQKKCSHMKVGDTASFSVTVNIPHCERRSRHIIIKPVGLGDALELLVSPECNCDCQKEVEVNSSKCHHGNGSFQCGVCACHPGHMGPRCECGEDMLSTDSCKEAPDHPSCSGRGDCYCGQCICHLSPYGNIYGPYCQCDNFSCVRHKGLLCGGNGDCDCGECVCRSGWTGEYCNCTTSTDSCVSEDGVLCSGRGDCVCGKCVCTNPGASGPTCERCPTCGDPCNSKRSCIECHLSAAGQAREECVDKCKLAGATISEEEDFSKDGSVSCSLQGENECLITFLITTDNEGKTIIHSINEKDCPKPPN

## COCCN(CCCCc1ccc2c(n1)NCCC2)CC[C@H](Nc1ncnc2ccccc12)C(=O)O [(S)-4-((2-methoxyethyl)(4-(5,6,7,8-tetrahydro-1,8-naphthyrid] [(S)-4-((2-methoxyethyl)(4-(5,6,7,8-tetrahydro-1,8-naphthyridin-2-yl)butyl)amino)-2-(quinazolin-4-ylamino)butanoic acid]
[1]; 1,4-Dioxane
  Solubility: S > 42.0 mg/mL
[1]; DCM
  Solubility: S > 38.0 mg/mL
[1]; DMSO
  Solubility: S > 42.0 mg/mL
[1]; EtOH
  Solubility: S > 44.0 mg/mL
[1]; IPA
  Solubility: S > 48.0 mg/mL
[1]; THF
  Solubility: S > 32.0 mg/mL

## COCCN(CCCCc1ccc2c(n1)NCCC2)CC[C@H](Nc1ncnc2ccccc12)C(=O)O [(S)-4-((2-methoxyethyl)(4-(5,6,7,8-tetrahydro-1,8-naphthyridin-2-yl)butyl)amino)-2-(quinazolin-4-ylamino)butanoic acid]
[2]
  pIC50: > 7.30
[1]; ACN, organic solvent or mixture, thermodynamic from solid, ACN, read-out: Solubility
  Solubility: 1900 to 6300 µg/mL (≈ 3.86 to 12.8 mM)
[1]; CPME, organic solvent or mixture, thermodynamic from solid, CPME, read-out: Solubility
  Solubility: 2600 to 8700 µg/mL (≈ 5.28 to 17.7 mM)
[1]; EtOAc, organic solvent or mixture, thermodynamic from solid, EtOAc, read-out: Solubility
  Solubility: 2100 to 7000 µg/mL (≈ 4.26 to 14.2 mM)
[1]; IPAc, organic solvent or mixture, thermodynamic from solid, IPAc, read-out: Solubility
  Solubility: 2300 to 7700 µg/mL (≈ 4.67 to 15.6 mM)
[1]; MIBK, organic solvent or mixture, thermodynamic from solid, MIBK, read-out: Solubility
  Solubility: 2500 to 8300 µg/mL (≈ 5.07 to 16.8 mM)
[1]; MTBE, organic solvent or mixture, thermodynamic from solid, MTBE, read-out: Solubility
  Solubility: < 2000 µg/mL
[1]; MeOH, organic solvent or mixture, thermodynamic from solid, MeOH, read-out: Solubility
  Solubility: > 52000 µg/mL
[1]; Toluene, organic solvent or mixture, thermodynamic from solid, Toluene, read-out: Solubility
  Solubility: 1900 to 6300 µg/mL (≈ 3.86 to 12.8 mM)
[1]; n-Heptane, organic solvent or mixture, thermodynamic from solid, n-Heptane, read-out: Solubility
  Solubility: < 2200 µg/mL

## COCCN(CCCCc1ccc2c(n1)NCCC2)CC[C@H](Nc1ncnc2ccccc12)C(=O)O [Form I, (S)-4-((2-methoxyethyl)(4-(5,6,7,8-tetrahydro-1,8-naphthyridin-2-yl)butyl)amino)-2-(quinazolin-4-ylamino)butanoic acid]
[1]; 1,4-Dioxane
  Solubility: S < 1.7 mg/mL
[1]; 2-MeTHF
  Solubility: S < 2.1 mg/mL
[1]; ACN
  Solubility: S < 1.6 mg/mL
[1]; Acetone
  Solubility: S < 1.9 mg/mL
[1]; CPME
  Solubility: S < 1.9 mg/mL
[1]; DCM
  Solubility: S < 2.8 mg/mL
[1]; EtOAc
  Solubility: S < 1.7 mg/mL
[1]; H2O
  Solubility: S > 56.0 mg/mL
[1]; IPA
  Solubility: S < 2.2 mg/mL
[1]; IPAc
  Solubility: S < 2.6 mg/mL
[1]; MEK
  Solubility: S < 2.4 mg/mL
[1]; MIBK
  Solubility: S < 2.8 mg/mL
[1]; MTBE
  Solubility: S < 2.1 mg/mL
[1]; MeOH
  Solubility: S > 52.0 mg/mL
[1]; THF
  Solubility: S < 1.6 mg/mL
[1]; Toluene
  Solubility: S < 2.2 mg/mL
[1]; n-Heptane
  Solubility: S < 2.1 mg/mL
[3]; 25° C./80% RH
  water absorption: 16.4%
[3]; after DVS test
  state after the DVS test: deliquescent
[4]; after heating to 110° C.
  form change after heating: No form changes
[4]
  solid form after heating: amorphous

## COCCN(CCCCc1ccc2c(n1)NCCC2)CC[C@H](Nc1ncnc2ccccc12)C(=O)O [Form II, (S)-4-((2-methoxyethyl)(4-(5,6,7,8-tetrahydro-1,8-naphthyridin-2-yl)butyl)amino)-2-(quinazolin-4-ylamino)butanoic acid]
[4]
  solid form after heating: amorphous

From US12637462B2, “Integrin inhibitor and uses thereof” (Pliant Therapeutics, Inc., priority 2020, dated 2026)
